Reference: patent publication US20100022401A1, “Avidin-like proteins from symbiotic bacteria” (LICENTIA OY, priority 2004, published 2010)
Read-outs that look alike come from different tables or passages of the source. Marks after values point to notes of the source that are not given here.

Columns and labels:
[1] = Fluorescent biotin conjugate dissociation assay; format: binding
Description: FIG. 2 Biotin dissociation analysis. (A) The [3H]biotin dissociation rate constant was measured at different temperatures. The values for streptavidin are from Klumb et al. (Klumb et al., 1998). The scale of the Y axis is logarithmic. (B) Release of fluorescent biotin conjugate from avidins was studied as a function of time in the presence of excess D-biotin at 50° C.
Ligand binding properties were studied both by [3H]biotin assay and fluorescent biotin conjugate assay. The dissociation rate constant of [3H]biotin (Amersham) from the bradavidins and avidin was measured at various temperatures as described in detail previously (Klumb et al., 1998). According to the results, (Table I, FIG. 2) the faster dissociation rate measured from bradavidin indicates weaker affinity toward the radiobiotin than those of avidin and streptavidin. The dissociation rate of a fluorescent biotin conjugate (ArcDia BF560™-biotin) was measured as previously described (Hytönen et al., 2004a) at 50° C.
The apparent molecular mass is indicated and followed by the theoretical mass in brackets. Transition temperature (Tr) indicates the temperature in which half of the protein is tetrameric and half monomeric in the absence (first value) and presence (second value) of biotin. In addition to the measured dissociation rate constant (kdiss), the release percentage of the fluorescent biotin conjugate in one hour in the presence of excess free biotin is indicated. Calculated isoelectrical point (pI) and the number of cysteine residues per monomer are also indicated.

[2] = radio-biotin; streptavidin values from Klumb et al., 1998; cited from earlier work
[3] = values from Bayer et al., 1996, cited from earlier work

Question: Which Fluorescent biotin kdiss ([1]; ArcDia BF560-biotin, 50° C.) does the source give for “Streptavidin: bacterial analog for avidin from S. avidinii (SEQ ID NO:7) [reference compound]” here?
Answer: Its Fluorescent biotin kdiss is 7.2e-06 s⁻¹.

Question: What about the “Fluorescent biotin conjugate dissociation (in words)” value ([1]; fluorescent biotin conjugate as ligand) of the same substance?
Answer: Its value is “very slow and small release”.

Question: What about the “Release 1 h of fluorescent biotin conjugate” value ([1]; one hour, presence of excess free biotin, 50° C.) of the same substance?
Answer: Its value is 5.1%.

Question: And the “[3H]biotin dissociation rate (in words)” value [2]?
Answer: Its value is “fell between these two”.

Question: And the “Heat treatment SDS-PAGE Tr (transition temperature)” value ([3]; absence of biotin)?
Answer: The value was 72^a ° C.

Question: And the “Heat treatment SDS-PAGE Tr (transition temperature)” value ([3]; presence of biotin)?
Answer: Its value is 100^a ° C.
